Assay results published in PubChem BioAssay AID1963430 (Molecular Pharmacology Branch, DTP, NCI, 2024).
Several values for one entry are separate records, joined by “and”; a condition that tells them apart may be missing. Equal entries are not always repeated.

Tested on: 521955-158-R2-J5-PDC complex spheroid growth, % test/control
Experiment: Anticancer human tumor 521955-158-R2-J5-PDC patient-derived pancreatic carcinoma cell line growth inhibition [Asc]
Details: for viability, T/C: stronger effect = lower value
In short: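 Complex solid-tumor spheroids incorporating human endothelial and mesenchymal stem cells received single agents or combinations over half-log dilution ranges anchored to clinical Cmax.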
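Further: spheroids exposed to agents for 7 days before readout.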
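Wherever viability, T/C is given: 100% = DMSO vehicle control viability.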

CCN1CCN(Cc2ccc(Nc3ncc(F)c(-c4cc(F)c5nc(C)n(C(C)C)c5c4)n3)nc2)CC1 + CCN1C(C(=O)NC23CCC(C(=O)O)(CC2)CC3)C(c2cccc(Cl)c2F)C2(C(=O)Nc3cc(Cl)ccc32)C12CCCCC2
IC50 (curve of first compound, second compound 0.03 µM): > 1000 nM
IC50 (curve of first compound, second compound 0.0949 µM): > 1000 nM
IC50 (curve of first compound, second compound 0.3 µM): > 1000 nM
IC50 (curve of first compound, second compound 0.949 µM): > 1000 nM
IC50 (curve of first compound, second compound 3 µM): > 1000 nM
viability, T/C (second compound 0.03 µM, first compound 0.00316 µM): 87.5%
viability, T/C (second compound 0.03 µM, first compound 0.01 µM): 88.8%
viability, T/C (second compound 0.03 µM, first compound 0.0316 µM): 57.3%
viability, T/C (second compound 0.03 µM, first compound 0.1 µM): 77.4%
viability, T/C (second compound 0.03 µM, first compound 0.316 µM): 72.4%
viability, T/C (second compound 0.03 µM, first compound 1 µM): 89.4%
viability, T/C (second compound 0.0949 µM, first compound 0.00316 µM): 101%
viability, T/C (second compound 0.0949 µM, first compound 0.01 µM): 79.8%
viability, T/C (second compound 0.0949 µM, first compound 0.0316 µM): 62.8%
viability, T/C (second compound 0.0949 µM, first compound 0.1 µM): 56.3%
viability, T/C (second compound 0.0949 µM, first compound 0.316 µM): 73.2%
viability, T/C (second compound 0.0949 µM, first compound 1 µM): 105%
viability, T/C (second compound 0.3 µM, first compound 0.00316 µM): 106%
viability, T/C (second compound 0.3 µM, first compound 0.01 µM): 99.1%
viability, T/C (second compound 0.3 µM, first compound 0.0316 µM): 65.6%
viability, T/C (second compound 0.3 µM, first compound 0.1 µM): 60.9%
viability, T/C (second compound 0.3 µM, first compound 0.316 µM): 83.8%
viability, T/C (second compound 0.3 µM, first compound 1 µM): 110%
viability, T/C (second compound 0.949 µM, first compound 0.00316 µM): 119%
viability, T/C (second compound 0.949 µM, first compound 0.01 µM): 102%
viability, T/C (second compound 0.949 µM, first compound 0.0316 µM): 107%
viability, T/C (second compound 0.949 µM, first compound 0.1 µM): 79%
viability, T/C (second compound 0.949 µM, first compound 0.316 µM): 92.3%
viability, T/C (second compound 0.949 µM, first compound 1 µM): 98.2%
viability, T/C (second compound 3 µM, first compound 0.00316 µM): 142%
viability, T/C (second compound 3 µM, first compound 0.01 µM): 172%
viability, T/C (second compound 3 µM, first compound 0.0316 µM): 126%
viability, T/C (second compound 3 µM, first compound 0.1 µM): 89.6%
viability, T/C (second compound 3 µM, first compound 0.316 µM): 107%
viability, T/C (second compound 3 µM, first compound 1 µM): 139%

Cc1nc(N2CCC3(CC2)COC(C)C3N)c(CO)nc1Sc1ccnc(N)c1Cl (configuration not stated) + Cc1c(S(C)(=O)=O)c(-c2cc(F)cc(N3CCN(c4ccc(NS(=O)(=O)c5ccc(NC(CCN6CCC(C(=O)OCCCP(=O)(O)O)CC6)CSc6ccccc6)c(S(=O)(=O)C(F)(F)F)c5)cc4)CC3)c2)c(-c2ccc(Cl)cc2)n1C(C)C
IC50 (curve of first compound, second compound 0.1 µM): 60.8 nM
IC50 (curve of first compound, second compound 0.316 µM): 57.7 nM
IC50 (curve of first compound, second compound 1 µM): 142 nM
IC50 (curve of first compound, second compound 3.16 µM): 392 nM
IC50 (curve of first compound, second compound 10 µM): > 3000 nM
viability, T/C (second compound 0.1 µM, first compound 0.00949 µM): 52.9%
viability, T/C (second compound 0.1 µM, first compound 0.03 µM): 55.8%
viability, T/C (second compound 0.1 µM, first compound 0.0949 µM): 45.8%
viability, T/C (second compound 0.1 µM, first compound 0.3 µM): 43.2%
viability, T/C (second compound 0.1 µM, first compound 0.949 µM): 34.9%
viability, T/C (second compound 0.1 µM, first compound 3 µM): 36.9%
viability, T/C (second compound 0.316 µM, first compound 0.00949 µM): 63.6%
viability, T/C (second compound 0.316 µM, first compound 0.03 µM): 65.8%
viability, T/C (second compound 0.316 µM, first compound 0.0949 µM): 38.9%
viability, T/C (second compound 0.316 µM, first compound 0.3 µM): 32.9%
viability, T/C (second compound 0.316 µM, first compound 0.949 µM): 30.4%
viability, T/C (second compound 0.316 µM, first compound 3 µM): 30.5%
viability, T/C (second compound 1 µM, first compound 0.00949 µM): 64.6%
viability, T/C (second compound 1 µM, first compound 0.03 µM): 69.4%
viability, T/C (second compound 1 µM, first compound 0.0949 µM): 48.2%
viability, T/C (second compound 1 µM, first compound 0.3 µM): 39.4%
viability, T/C (second compound 1 µM, first compound 0.949 µM): 44.4%
viability, T/C (second compound 1 µM, first compound 3 µM): 29.4%
viability, T/C (second compound 3.16 µM, first compound 0.00949 µM): 75.9%
viability, T/C (second compound 3.16 µM, first compound 0.03 µM): 64.7%
viability, T/C (second compound 3.16 µM, first compound 0.0949 µM): 61.2%
viability, T/C (second compound 3.16 µM, first compound 0.3 µM): 50.3%
viability, T/C (second compound 3.16 µM, first compound 0.949 µM): 43%
viability, T/C (second compound 3.16 µM, first compound 3 µM): 48.9%
viability, T/C (second compound 10 µM, first compound 0.00949 µM): 230%
viability, T/C (second compound 10 µM, first compound 0.03 µM): 221%
viability, T/C (second compound 10 µM, first compound 0.0949 µM): 179%
viability, T/C (second compound 10 µM, first compound 0.3 µM): 190%
viability, T/C (second compound 10 µM, first compound 0.949 µM): 179%
viability, T/C (second compound 10 µM, first compound 3 µM): 134%

O=C(c1cc(Cc2n[nH]c(=O)c3ccccc23)ccc1F)N1CCN(C(=O)C2CC2)CC1
viability, T/C (compound 0.0316 µM): 80.7% and 80% and 97.9%
viability, T/C (compound 0.1 µM): 79.6% and 89.4% and 92.2%
viability, T/C (compound 0.316 µM): 71.8% and 89.7% and 84.1%
viability, T/C (compound 1 µM): 62.2% and 88.6% and 85.9%
viability, T/C (compound 3.16 µM): 76.3% and 93.4% and 74.3%
viability, T/C (compound 10 µM): 60.8% and 63.9% and 61.5%
IC50 (curve of compound): > 10000 nM
